Laboratory results from PMC9738591, “N-[1,3-Dialkyl(aryl)-2-oxoimidazolidin-4-ylidene]-aryl(alkyl)sulphonamides as Novel Selective Human Cannabinoid Type 2 Receptor (hCB2R) Ligands; Insights into the Mechanism of Receptor Activation/Deactivation” (Molecules, 2022).
Read-outs that look alike come from different tables or passages of the source.

Tests used:
human recombinant CB1R = target: T1, human recombinant CB1R (Homo sapiens, UniProt P21554); test: Competition binding assay, displacement of [3H]-CP-55,940 from membranes of HEK-293 cells overexpressing CB1R; conditions: for inhibition at 10 µM / inhibition at 25 µM: read-out: % Displacement/ Max. Conc. Tested, hCB1R
T1 construct: purchased Perkin-Elmer, Italy; host or cells: HEK-293 cells (membranes)
T1 sequence (P21554 whole entry): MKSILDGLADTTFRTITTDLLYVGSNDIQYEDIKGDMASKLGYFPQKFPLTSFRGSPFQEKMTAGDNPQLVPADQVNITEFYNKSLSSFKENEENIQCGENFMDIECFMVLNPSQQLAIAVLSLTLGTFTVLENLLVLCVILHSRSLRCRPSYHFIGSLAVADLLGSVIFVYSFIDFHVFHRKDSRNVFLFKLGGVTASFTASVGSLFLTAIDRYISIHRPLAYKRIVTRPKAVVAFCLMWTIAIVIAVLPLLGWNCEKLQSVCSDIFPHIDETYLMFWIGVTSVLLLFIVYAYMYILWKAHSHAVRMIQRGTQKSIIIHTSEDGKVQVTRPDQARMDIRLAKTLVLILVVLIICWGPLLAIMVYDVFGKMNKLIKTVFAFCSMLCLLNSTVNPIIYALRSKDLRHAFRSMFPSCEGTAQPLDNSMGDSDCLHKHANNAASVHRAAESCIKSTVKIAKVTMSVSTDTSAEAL
Protocol: (§1) The binding affinities (Ki values) of the compounds for human recombinant hCB1R and hCB2R were determined as previously described, using SR144528 as a reference compound [30], and are reported in Table 1.
(§2) Compound affinity for CB1R and CB2R was measured as previously reported. […] Competition curves were performed by displacing [^3H]-CP-55 940 with increasing concentrations of compounds (0.1 nM–10 or 25 μM). […] All compounds were tested following the procedure described by the manufacturer (Perkin-Elmer, Italy). Displacement curves were generated by incubating drugs with [^3H]-CP-55 940 for 90 min at 30 °C. Ki values were calculated by applying the Cheng−Prusoff equation to the IC50 values for the displacement of the bound radioligand by increasing concentrations of the test compound. Data represent the mean values of three independent experiments performed in duplicate and are expressed as the average of Ki (µM) ± standard deviation. Data were analyzed using PRISM.9.3 software (GraphPad Software Inc, San Diego, CA, USA).

human CB2R [1] = target: T2, human CB2R (Homo sapiens, UniProt P34972); test: cAMP Hunter assay, effect on NKH-477-induced cAMP levels (agonist mode); format: cell-based; conditions: for Effect on NKH-477-induced cAMP levels (functional behavior): CHO-K1 cells overexpressing human CB2R, compound alone
T2 sequence (P34972 whole entry): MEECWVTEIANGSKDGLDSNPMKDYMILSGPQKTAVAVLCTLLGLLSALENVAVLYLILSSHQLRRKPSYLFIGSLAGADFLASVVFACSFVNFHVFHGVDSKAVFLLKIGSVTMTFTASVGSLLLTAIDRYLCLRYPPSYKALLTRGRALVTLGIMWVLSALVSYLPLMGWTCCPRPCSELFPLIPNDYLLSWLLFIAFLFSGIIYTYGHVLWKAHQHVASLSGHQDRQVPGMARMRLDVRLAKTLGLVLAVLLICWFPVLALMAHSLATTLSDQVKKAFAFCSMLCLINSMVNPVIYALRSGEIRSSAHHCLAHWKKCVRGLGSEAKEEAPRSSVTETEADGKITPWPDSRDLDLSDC
Protocol: The above-mentioned compounds were tested for their functional activity.
Gi-coupled cAMP modulation was measured following the manufacturer’s protocol (Eurofins, Fremont, CA, USA), as previously reported. Briefly, CHO-K1 cells overexpressing the human CB2R were plated into a 96-well plate (10,000 cells/well) and incubated overnight at 37 °C, 5% CO2. Media was aspirated and replaced with 30 μL of assay buffer. Cells were incubated for 30 min at 37 °C with 15 μL of 3× dose−response solutions of samples prepared in the presence of a cell assay buffer containing 3× of 25 μM NKH-477 solution to stimulate adenylate cyclase and enhance basal cAMP levels. For those compounds not showing a decrease in cAMP levels, the effect upon receptor activation in the presence of the JWH-133 selective agonist was investigated. Cells were pre-incubated with samples (15 min at 37 °C at 6× the final desired concentration), followed by 30 min incubation with the JWH-133 agonist challenge at the EC80 concentration (EC80 = 4 μM, previously determined in separate experiments) in the presence of NKH-477 to stimulate adenylate cyclase and enhance cAMP levels. Cell lysis and cAMP detection were performed as per the manufacturer’s protocol. Luminescence measurements were performed using a GloMax Multi Detection System (Promega, Italy). Data are reported as the means ± SEM of three independent experiments conducted in triplicate and were normalized considering the NKH-477 stimulus alone as 100% of the response. Data were analyzed using PRISM.9.3 software (GraphPad Software Inc, San Diego, CA, USA).
Figure 7 Concentration-response curves of compounds in the cAMP Hunter assay. Curves show the effect of increasing concentrations of compounds on NKH-477-induced cAMP levels in stable CHO cells expressing the human CB2. Data are reported as the means ± SEM of three independent experiments conducted in triplicate, normalized to the maximal and minimal responses.

human CB2R [2] = target: T2, human CB2R; test: Competition binding assay, displacement of [3H]-CP-55,940 from membranes of HEK-293 cells overexpressing CB2R; set-up: purchased Perkin-Elmer, Italy; host or cells: HEK-293 cells (membranes); conditions: for inhibition at 25 µM: max conc. tested 25 µM
Protocol: as §1, §2

human CB2R [3] = target: T2, human CB2R; test: cAMP Hunter assay in the presence of JWH-133 agonist challenge (antagonist mode); format: cell-based; conditions: for Antagonism of JWH-133-induced inhibition of NKH-477-induced cAMP formation: JWH-133 4 µM (EC80) agonist challenge
Protocol: (§3) Only a small displacement was observed and only at the highest concentration (Figure 8). We reasoned that the discrepancy with the predictions was mainly due to the chemical–physical features of the molecule and that the lack of antagonism was caused by issues related to compound solubility in the buffer used for the assay. Indeed, the maximum concentration of 12b that could be reached in the buffer solution used for the functional assay, measured by UV absorption as well as by HPLC, was 2.3 µM.

[4] = Maximum concentration reached in the functional assay buffer, by UV absorption and HPLC; format: physicochemical; conditions: measured by UV absorption and HPLC
Protocol: as §3

[5] = [3H]-CP-55,940 displacement, HEK-293 membranes, 90 min at 30 °C, Cheng-Prusoff, read-out: Ki hCB1R (µM ± S.E.)
[6] = stable CHO cells expressing the human CB2, read-out: EC50, reduction of NKH-477-induced cAMP levels
[7] = [3H]-CP-55,940 displacement, HEK-293 membranes, 90 min at 30 °C, Cheng-Prusoff, read-out: Ki hCB2R (µM ± S.E.)
[8] = max conc. tested 10 µM, read-out: % Displacement/ Max Conc. Tested, hCB2R (converted)
[9] = read-out: % Displacement/ Max Conc. Tested, hCB2R (converted)

| Compound | Ki (human recombinant CB1R; [5]) [µM] | inhibition at 10 µM (human recombinant CB1R) [%] | Effect on NKH-477-induced cAMP levels (functional behavior) (human CB2R [1]) | EC50 (human CB2R [1]; [6]) [nM] | melting point [°C] | Ki (human CB2R [2]; [7]) [µM] | inhibition at 10 µM (human CB2R [2]; [8]) [%] | inhibition at 25 µM (human recombinant CB1R) [%] | Antagonism of JWH-133-induced inhibition of NKH-477-induced cAMP formation (human CB2R [3]) | Maximum concentration that could be reached in the buffer solution used for the functional assay [4] [µM] | inhibition at 25 µM (human CB2R [2]; [9]) [%] | EC80 concentration of agonist challenge (human CB2R [3]; previously determined in separate experiments) [nM] | Ki (human recombinant CB1R) [µM] | EC50 (human CB2R [1]) [nM] | Ki (human CB2R [2]) [µM] | inhibition at 10 µM (human CB2R [2]; read-out: % Displacement/ Max Conc. Tested, hCB2R) [%] |
| --- | --- | --- | --- | --- | --- | --- | --- | --- | --- | --- | --- | --- | --- | --- | --- | --- |
| CC(C)(C)N1CC(=NS(=O)(=O)c2cccc(Br)c2)N(CC2CC2)C1=O [Compound 10e, 3-Bromo-N-[1-tert-Butyl-3-cyclopropylmethyl-2-oxoimidazolidin-4-ylidene]benzenesulfonamide] | > 10 | 10.8 | typical agonist behavior | 264 | 114 to 115 | 0.34 ± 0.08 | 83.5 |  |  |  |  |  |  |  |  |  |
| O=C1N(CC2CC2)C(=NS(=O)(=O)c2ccccc2)CN1C12CC3CC(CC(C3)C1)C2 [Compound 12b, N-[1-Adamant-1-yl-3-cyclopropylmethyl-2-oxoimidazolidin-4-ylidene]benzenesulfonamide] | > 10 |  | did not alter the level of cAMP |  | 198 to 198.5 | 0.26 ± 0.03 |  | 29.5 | did not antagonize the agonist challenge | 2.3 | 84.5 |  |  |  |  |  |
| CCCC(C)(C)c1ccc2c(c1)OC(C)(C)[C@@H]1CC=C(C)C[C@@H]21 [JWH-133, reference compound] |  |  |  |  |  |  |  |  |  |  |  | 4000 |  |  |  |  |
| CC(C)(C)N1CC(=NS(=O)(=O)c2ccccc2)N(CC2CC2)C1=O [Compound 10b, N-[1-tert-Butyl-3-cyclopropylmethyl-2-oxoimidazolidin-4-ylidene]benzenesulfonamide] | > 10 | 10.5 | typical agonist behavior | 1260 | 114.5 to 115 | 1.67 ± 0.16 |  |  |  |  | 73 |  |  |  |  |  |
| CC(C)(C)N1CC(=NS(=O)(=O)c2cccc3ccccc23)N(CC2CC2)C1=O [Compound 10g, N-[1-tert-Butyl-3-cyclopropylmethyl-2-oxoimidazolidin-4-ylidene]naphthalene-1-sulfonamide] |  | 24.9 | typical agonist behavior |  |  |  |  |  |  |  |  |  | > 10 | 72 | 0.06 ± 0.01 | 95.7 |
| O=C1N(CC2CC2)C(=NS(=O)(=O)c2cccc(Br)c2)CN1C12CC3CC(CC(C3)C1)C2 [Compound 12e, N-[1-Adamant-1-yl-3-cyclopropylmethyl-2-oxoimidazolidin-4-ylidene]-3-bromo-1-benzenesulfonamide] | > 10 | 5.07 | did not alter the level of cAMP |  | 138 to 138.5 | 0.16 ± 0.03 | 71.4 |  | fully antagonize |  |  |  |  |  |  |  |
| CS(=O)(=O)N=C1CN(C23CC4CC(CC(C4)C2)C3)C(=O)N1CC1CC1 [Compound 12a, N-[1-Adamant-1-yl-3-cyclopropylmethyl-2-oxoimidazolidin-4-ylidene]methanesulfonamide] | 0.21 ± 0.004 |  | typical agonist behavior | 2140 | 199.5 to 200 | 0.28 ± 0.05 |  | 76.5 |  |  | 76.5 |  |  |  |  |  |
| COCCN1C(=O)N(C(C)(C)C)CC1=NS(=O)(=O)c1ccc(C)cc1 [Compound 11c, N-[1-tert-Butyl-3-(2-methoxyethyl)-2-oxoimidazolidin-4-ylidene]-4-methylbenzene-1-sulfonamide] | > 10 | 57 |  |  | 106 to 107 | > 10 | 33.4 |  |  |  |  |  |  |  |  |  |
